Measured values taken from US20220193076A1, “METHODS OF TREATING BREAST CANCER WITH TUCATINIB” (Seagen Inc., priority 2019, published 2022).

Assays:
[1] = Example 2 Part E: single- and multiple-dose PK of tucatinib and ONT-993; type: in vivo, human; conditions: tucatinib 300 mg BID, Day 14 vs Day 8
[2] = molecular target: T1, OAT2 (Homo sapiens, UniProt Q9Y694); assay: Inhibition of OAT2 mediated transport of creatinine in transfected MDCK-II cells (Example 3); type: in vitro ADME; conditions: at concentration of 10 μM
T1 construct: expressed in transfected cells; host or cells: MDCK-II
T1 sequence (Q9Y694 1-548): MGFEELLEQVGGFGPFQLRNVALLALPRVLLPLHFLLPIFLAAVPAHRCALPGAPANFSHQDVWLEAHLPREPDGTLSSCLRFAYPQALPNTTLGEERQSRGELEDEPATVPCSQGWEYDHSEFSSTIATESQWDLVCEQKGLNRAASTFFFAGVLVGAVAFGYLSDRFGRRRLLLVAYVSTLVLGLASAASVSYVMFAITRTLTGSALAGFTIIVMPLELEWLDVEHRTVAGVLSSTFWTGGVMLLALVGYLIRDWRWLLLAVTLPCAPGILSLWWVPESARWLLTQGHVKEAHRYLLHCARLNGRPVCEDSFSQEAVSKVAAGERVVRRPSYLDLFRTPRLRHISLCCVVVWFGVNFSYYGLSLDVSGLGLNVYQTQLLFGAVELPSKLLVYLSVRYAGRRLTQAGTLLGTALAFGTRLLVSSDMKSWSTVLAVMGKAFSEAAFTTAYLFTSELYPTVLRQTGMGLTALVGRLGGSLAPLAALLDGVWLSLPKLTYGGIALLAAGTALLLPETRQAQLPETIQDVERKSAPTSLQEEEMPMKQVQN
Experimental: (§1) Substrate dependent inhibition is common among transporters including MATE1 and MATE2-K. In this study, creatinine was used as the probe substrate to assess the inhibitory potency of Tucatinib and ONT-993. OAT2, OCT2, OCT3, MATE1, and MATE2-K are the renal transporters identified to transport creatinine. Tucatinib and its metabolite ONT-993 were tested as potential inhibitors of OAT2, OCT2, MATE1, and MATE2-K mediated transport using creatinine as a probe substrate.
(§2) For this study, MDCK-II were maintained in DMEM with low glucose and 10% FBS. Cells were seeded at 60K±10K cells/well on 96-well, transwell membrane plates approximately 24 hours before transfection. Transport assays were carried out approximately 48 hours after transfection. Cells were transfected and treated to express the transporter of interest or treated with a control vector. The transport of creatinine was determined by radiometric detection.
(§3) Net transporter mediated uptake of the substrate by each transporter was calculated as follows: Net Transporter Mediated Substrate Uptake (pmol/min/cm^2)=(Cellular accumulation in the presence of the transporter)−(Mean cellular accumulation in the absence of the transporter.
(§4) Percent inhibition was calculated as follows: Percent inhibition=100−(100*(transporter mediated uptake)with inhibition/(transporter mediated uptake)without inhibition) […]

[3] = molecular target: T2, MATE1 (Homo sapiens, UniProt Q96FL8); assay: Inhibition of MATE1 mediated transport of creatinine in transfected MDCK-II cells (Example 3); type: in vitro ADME; design: expressed in transfected cells; host or cells: MDCK-II; conditions: probe substrate creatinine
T2 sequence (Q96FL8 1-570): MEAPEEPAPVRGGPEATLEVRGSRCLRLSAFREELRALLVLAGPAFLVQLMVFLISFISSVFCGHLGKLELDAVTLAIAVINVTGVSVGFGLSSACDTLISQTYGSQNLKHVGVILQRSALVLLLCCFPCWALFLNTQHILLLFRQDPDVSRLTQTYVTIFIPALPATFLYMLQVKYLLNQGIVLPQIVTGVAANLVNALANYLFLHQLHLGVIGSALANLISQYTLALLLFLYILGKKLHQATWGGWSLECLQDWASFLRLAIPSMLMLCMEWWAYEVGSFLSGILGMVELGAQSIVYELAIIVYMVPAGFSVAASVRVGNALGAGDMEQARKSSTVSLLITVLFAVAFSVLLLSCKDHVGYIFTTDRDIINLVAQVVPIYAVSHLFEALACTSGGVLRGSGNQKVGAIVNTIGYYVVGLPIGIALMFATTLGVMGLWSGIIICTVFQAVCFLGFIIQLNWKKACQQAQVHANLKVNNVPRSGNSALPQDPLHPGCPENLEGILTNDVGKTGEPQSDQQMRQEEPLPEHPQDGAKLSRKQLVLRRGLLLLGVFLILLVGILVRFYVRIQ
Experimental: OAT2, OCT2, OCT3, MATE1, and MATE2-K are the renal transporters identified to transport creatinine.
as §2, §3
Percent inhibition was calculated as follows: Percent inhibition=100−(100*(transporter mediated uptake)with inhibition/(transporter mediated uptake)without inhibition)
The following equation was used to determine IC50 values of uptake assays: […]

[4] = molecular target: T3, OCT2 (Homo sapiens, UniProt O15244); assay: Inhibition of OCT2 mediated transport of creatinine in transfected MDCK-II cells (Example 3); type: in vitro ADME; conditions: probe substrate creatinine, 0.03 to 10 μM
T3 construct: expressed in transfected cells; host or cells: MDCK-II
T3 sequence (O15244 1-555): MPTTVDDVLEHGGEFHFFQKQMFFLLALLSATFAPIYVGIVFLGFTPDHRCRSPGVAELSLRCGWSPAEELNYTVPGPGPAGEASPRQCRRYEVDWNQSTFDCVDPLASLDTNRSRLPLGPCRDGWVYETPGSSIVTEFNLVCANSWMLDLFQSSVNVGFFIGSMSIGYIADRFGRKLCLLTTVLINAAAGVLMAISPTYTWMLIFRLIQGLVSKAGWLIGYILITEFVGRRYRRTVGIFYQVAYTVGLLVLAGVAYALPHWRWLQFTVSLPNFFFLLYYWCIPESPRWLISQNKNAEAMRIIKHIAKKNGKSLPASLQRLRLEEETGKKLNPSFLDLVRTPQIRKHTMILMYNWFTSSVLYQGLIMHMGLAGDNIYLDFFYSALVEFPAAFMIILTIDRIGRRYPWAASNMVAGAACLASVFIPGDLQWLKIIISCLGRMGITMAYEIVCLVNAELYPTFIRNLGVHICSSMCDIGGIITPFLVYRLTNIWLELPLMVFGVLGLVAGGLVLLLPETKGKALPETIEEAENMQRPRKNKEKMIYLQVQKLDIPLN
Experimental: as §1, §2, §3, §4

For `Cc1cc(Nc2ncnc3ccc(NC4=NC(C)(CO)CO4)cc23)ccc1Oc1ccn2ncnc2c1` (stereo not shown) [ONT-993], the “Rac (accumulation ratio) after multiple dosing” value [1] was 2.01, the “Maximum inhibition of OAT2 mediated transport of creatinine” value [2] was 44.9% and the IC50 [3] was 86.3 ± 12.6 nM. The IC50 [4] was 544 ± 278 nM.
